PMC7587356, “High-Throughput Screening for Inhibitors of the SARS-CoV-2 Protease Using a FRET-Biosensor” (Molecules, 2020)
Where a name gives a salt, the structure may show the parent alone. Read-outs that look alike come from different tables or passages of the source.

Target: SARS-CoV-2 3CLpro (Severe acute respiratory syndrome coronavirus 2, UniProt P0DTD1)
Assay: biochemical
Assay type: biochemical
Set-up: Replicate_1 / Replicate_2 / mean / mean (LOPAC_screen_w_protease): unit not given here
Settings: for mean (LOPAC screen with protease) / Replicate_1 (LOPAC screen with protease) / Replicate_2 (LOPAC screen with protease): primary screen at 5 µM; for inhibition at 5 µM: 4 h
[1] = sheet LOPAC_screen_w_protease, mean of two replicates
[2] = sheet LOPAC_screen_w_protease, replicate 1
[3] = sheet LOPAC_screen_w_protease, replicate 2
[4] = LOPAC1280 primary screen with protease, 5 µM compound, mean of the two replicates
[5] = LOPAC1280 primary screen with protease, 5 µM compound, replicate 1
[6] = LOPAC1280 primary screen with protease, 5 µM compound, replicate 2
[7] = sheet LOPAC_screen_w_protease, primary screen with protease, 5 µM, mean of two replicates, read-out: mean
[8] = sheet LOPAC_screen_w_protease, primary screen with protease, 5 µM, replicate 1, read-out: Replicate_1
[9] = sheet LOPAC_screen_w_protease, primary screen with protease, 5 µM, replicate 2, read-out: Replicate_2
[10] = sheet LOPAC_screen_w_protease, primary screen with protease, mean of two replicates
[11] = sheet LOPAC_screen_w_protease, primary screen with protease, replicate 1
[12] = sheet LOPAC_screen_w_protease, primary screen with protease, replicate 2
[13] = sheet LOPAC_screen_w_protease, LOPAC1280 primary screen at 5 µM, with protease, mean of the two replicates
[14] = sheet LOPAC_screen_w_protease, LOPAC1280 primary screen at 5 µM, with protease, replicate 1
[15] = sheet LOPAC_screen_w_protease, LOPAC1280 primary screen at 5 µM, with protease, replicate 2
[16] = sheet LOPAC_screen_w_protease, primary screen with protease, mean of two replicates, read-out: mean
[17] = sheet LOPAC_screen_w_protease, primary screen with protease, replicate 1, read-out: Replicate_1
[18] = sheet LOPAC_screen_w_protease, primary screen with protease, replicate 2, read-out: Replicate_2
[19] = sheet LOPAC_screen_w_protease, primary screen with protease, 5 µM, mean of two replicates
[20] = sheet LOPAC_screen_w_protease, primary screen with protease, 5 µM, replicate 1
[21] = sheet LOPAC_screen_w_protease, primary screen with protease, 5 µM, replicate 2
[22] = sheet LOPAC_screen_w_protease, LOPAC1280 primary screen with protease, 5 µM compound, mean of the two replicates, read-out: mean
[23] = sheet LOPAC_screen_w_protease, LOPAC1280 primary screen with protease, 5 µM compound, replicate 1, read-out: Replicate_1
[24] = sheet LOPAC_screen_w_protease, LOPAC1280 primary screen with protease, 5 µM compound, replicate 2, read-out: Replicate_2
[25] = LOPAC1280 primary screen with protease, 5 µM compound, mean of two replicates

Work on CN(C)CCC(c1ccc(Cl)cc1)c1ccccn1.O=C(O)/C=C\C(=O)O (racemic) [(±)-Chlorpheniramine maleate] yielded a Replicate_1 of 0.5322, a Replicate_2 of -0.472 and a mean of 0.03007.

CNc1ncnc2c1ncn2[C@@H]1O[C@H](CO)[C@@H](O)[C@H]1O [N6-Methyladenosine] gave a mean (sheet LOPAC_screen_w_protease, primary screen with protease, compound at 5 µM, mean of two replicates) of 2.9788, a Replicate_1 (sheet LOPAC_screen_w_protease, primary screen with protease, compound at 5 µM, replicate 1) of 2.994 and a Replicate_2 (sheet LOPAC_screen_w_protease, primary screen with protease, compound at 5 µM, replicate 2) of 2.964.

For Br.CN1CCc2cc(O)c(O)cc2C(c2ccccc2)C1 (stereo not shown) [SKF 75670 hydrobromide], the “mean (LOPAC screen with protease)” value [1] was 25.5455, the “Replicate_1 (LOPAC screen with protease)” value [2] was 25.015 and the “Replicate_2 (LOPAC screen with protease)” value [3] was 26.0759.

With CC[N+](C)(CC)CC(=O)Nc1c(C)cccc1C.[Cl-] [Lidocaine N-methyl hydrochloride] the “mean (LOPAC_screen_w_protease)” value [4] was 2.035, the “Replicate_1 (LOPAC_screen_w_protease)” value [5] was 4.235 and the “Replicate_2 (LOPAC_screen_w_protease)” value [6] was -0.1654.

In the case of N=C(N)c1ccc(N)cc1 [4-Aminobenzamidine dihydrochloride], the inhibition at 5 µM [7] was -0.229%, the inhibition at 5 µM [8] was 1.52% and the inhibition at 5 µM [9] was -1.98%.

With CN1CCC(c2c[nH]c3ccc(O)cc23)CC1.O=C(O)/C=C\C(=O)O [BRL 54443 maleate] the mean [10] was 2.426, the Replicate_1 [11] was 0.4828 and the Replicate_2 [12] was 4.37.

Compound CCC(C)N(C)C(=O)c1cc2ccccc2c(-c2ccccc2Cl)n1 (stereo not shown) [PK 11195] has an inhibition at 5 µM (sheet LOPAC_screen_w_protease, primary screen with protease, compound at 5 µM, mean of two replicates, read-out: mean) of 3.14%, an inhibition at 5 µM (sheet LOPAC_screen_w_protease, primary screen with protease, compound at 5 µM, replicate 1, read-out: Replicate_1) of 1.87% and an inhibition at 5 µM (sheet LOPAC_screen_w_protease, primary screen with protease, compound at 5 µM, replicate 2, read-out: Replicate_2) of 4.41%.

In the case of Br.COc1ccccc1N1CCN(CCCCN2C(=O)c3ccccc3C2=O)CC1 [NAN-190 hydrobromide], the “mean (LOPAC_screen_w_protease)” value [4] was 1.999, the “Replicate_1 (LOPAC_screen_w_protease)” value [5] was 4.031 and the “Replicate_2 (LOPAC_screen_w_protease)” value [6] was -0.03323.

For C[N+]1(C)[C@@H]2CC[C@H]1C[C@@H](OC(=O)C(CO)c1ccccc1)C2 (stereo partly shown) [Atropine methyl nitrate], the inhibition at 5 µM [7] was -0.0687%, the inhibition at 5 µM [8] was 0.687% and the inhibition at 5 µM [9] was -0.825%.

Br.CO[C@H]1CC=C2CCN3CCC4=C(CC(=O)OC4)[C@]23C1 [Dihydro-beta-erythroidine hydrobromide] was tested, and the “mean (LOPAC_screen_w_protease)” value [4] was 2.038, the “Replicate_1 (LOPAC_screen_w_protease)” value [5] was 1.621 and the “Replicate_2 (LOPAC_screen_w_protease)” value [6] was 2.454.

C[C@H](N)CN1CCc2ccc(Br)cc21.C[C@H](N)CN1CCc2ccc(Br)cc21.O=C(O)/C=C/C(=O)O [VER-3323 hemifumarate salt] gave a mean [13] of 0.8173, a Replicate_1 [14] of 0.78 and a Replicate_2 [15] of 0.8545.

Clc1ccc(N2C[C@H]3CC[C@@H](C2)N3)nn1 [DBO-83] showed a mean (sheet LOPAC_screen_w_protease, LOPAC1280 primary screen with protease, 5 µM compound, mean of the two replicates) of 6.059, a Replicate_1 (sheet LOPAC_screen_w_protease, LOPAC1280 primary screen with protease, 5 µM compound, replicate 1) of 7.536 and a Replicate_2 (sheet LOPAC_screen_w_protease, LOPAC1280 primary screen with protease, 5 µM compound, replicate 2) of 4.581.

Compound O=C1CCc2cc(OCCCCc3nnnn3C3CCCCC3)ccc2N1 [Cilostazol] has an inhibition at 5 µM [16] of 2.16%, an inhibition at 5 µM [17] of 1.9% and an inhibition at 5 µM [18] of 2.42%.

With O=C1c2c(O)cc(O)cc2O[C@H](c2ccc(O)c(O)c2)[C@H]1O [dihydroquercetin, reference compound] the “inhibition of 3CLpro in the primary screen” value (5 µM compound, 0.01% Triton X-100, 4 h endpoint, duplicate mean) was 7.5%.

For C#CCN[C@H](C)Cc1ccccc1.Cl [R-(-)-Desmethyldeprenyl hydrochloride], the “Replicate_1 (LOPAC_screen_w_protease)” value was 3.419, the “Replicate_2 (LOPAC_screen_w_protease)” value was 0.5348 and the “mean (LOPAC_screen_w_protease)” value was 1.9771.

In the case of CCCNC(=O)NS(=O)(=O)c1ccc(Cl)cc1 [Chlorpropamide], the inhibition at 5 µM (LOPAC1280 primary screen with protease, 5 µM compound, replicate 1, read-out: Replicate_1 (LOPAC_screen_w_protease)) was 1.51%, the inhibition at 5 µM (LOPAC1280 primary screen with protease, 5 µM compound, replicate 2, read-out: Replicate_2 (LOPAC_screen_w_protease)) was 2.73% and the “mean (LOPAC_screen_w_protease)” value [4] was 2.118.

Work on CCCCC#Cc1nc(N)c2ncn([C@@H]3O[C@H](C(=O)NCC)[C@@H](O)[C@H]3O)c2n1 [HE-NECA] yielded a mean [19] of 0.2072, a Replicate_1 [20] of 3.132 and a Replicate_2 [21] of -2.7179.

With COc1cc(Cc2cnc(N)nc2N)cc(OC)c1OC [Trimethoprim] the inhibition at 5 µM (read-out: Replicate_1) was -0.343%, the inhibition at 5 µM (read-out: Replicate_2) was -3.24% and the inhibition at 5 µM (read-out: mean) was -1.79%.

Work on CCCCCCC(C)(C)c1ccc([C@@H]2C[C@H](O)CC[C@H]2CCCO)c(O)c1 [CP55940] yielded an inhibition at 5 µM [16] of 2.22%, an inhibition at 5 µM [17] of 1.74% and an inhibition at 5 µM [18] of 2.71%.

In the case of Br.C=CCN1CCc2c(cc(O)c(O)c2Br)[C@@H](c2ccccc2)C1 [R(+)-6-Bromo-APB hydrobromide], the “mean (LOPAC screen with protease)” value [1] was 28.8024, the “Replicate_1 (LOPAC screen with protease)” value [2] was 26.2193 and the “Replicate_2 (LOPAC screen with protease)” value [3] was 31.3855.

CSc1ccc2c(c1)C(N1CCN(C)CC1)Cc1ccccc1S2 (stereo not shown) [Methiothepin mesylate] gave an inhibition at 5 µM [22] of 4.09%, an inhibition at 5 µM [23] of 3.76% and an inhibition at 5 µM [24] of 4.42%.

With CC(C)NCC(O)c1ccc(NS(C)(=O)=O)cc1.Cl (racemic) [(±)-Sotalol hydrochloride] the “mean (LOPAC_screen_w_protease)” value [25] was 1.4398, the “Replicate_1 (LOPAC_screen_w_protease)” value [5] was 1.054 and the “Replicate_2 (LOPAC_screen_w_protease)” value [6] was 1.826.

With CCN(CC)CCNC(=O)c1ccc(NC(C)=O)cc1.Cl [N-Acetylprocainamide hydrochloride] the “mean (LOPAC_screen_w_protease)” value [25] was 1.374, the “Replicate_1 (LOPAC_screen_w_protease)” value [5] was 0.6051 and the “Replicate_2 (LOPAC_screen_w_protease)” value [6] was 2.1421.

Compound Cn1c(=O)c2c(nc(C=Cc3cccc(Cl)c3)n2C)n(C)c1=O [8-(3-Chlorostyryl)caffeine] has a mean [13] of 0.7326, a Replicate_1 [14] of 1.9699 and a Replicate_2 [15] of -0.5047.

Work on Br.CCCN(CCC)[C@@H]1CCc2ccc(O)cc2C1 [R-(+)-7-Hydroxy-DPAT hydrobromide] yielded a mean [10] of 2.2447, a Replicate_1 [11] of 2.253 and a Replicate_2 [12] of 2.237.

Work on NC(=O)OCC(COC(N)=O)c1ccccc1 [Felbamate] yielded an inhibition at 5 µM [16] of 2.23%, an inhibition at 5 µM [17] of 3.62% and an inhibition at 5 µM [18] of 0.843%.

COc1ccc2c(c1)c(CC(=O)N1CCOCC1)c(C)n2C(=O)c1ccc(Cl)cc1 [Indomethacin morpholinylamide] gave an inhibition at 5 µM [16] of 2.27%, an inhibition at 5 µM [17] of 2.02% and an inhibition at 5 µM [18] of 2.53%.

N=C(N)NC(=N)Nc1ccccc1 [1-Phenylbiguanide] gave a mean [13] of 0.7649, a Replicate_1 [14] of -0.09991 and a Replicate_2 [15] of 1.6298.

Compound N[C@@H](C(=O)N[C@@H]1C(=O)N2C(C(=O)O)=C(Cl)CS[C@H]12)c1ccccc1 [Cefaclor] has an inhibition at 5 µM (read-out: Replicate_1 (LOPAC screen with protease)) of 13.9%, an inhibition at 5 µM (read-out: Replicate_2 (LOPAC screen with protease)) of 11.6% and an inhibition at 5 µM (read-out: mean (LOPAC screen with protease)) of 12.7%.

In the case of CC(=O)NNC(=O)N1Cc2ccccc2Oc2ccc(Cl)cc21 [SC 19220], the mean [19] was 0.1868, the Replicate_1 [20] was 1.1062 and the Replicate_2 [21] was -0.7326.

In the case of FC(F)(F)c1ccccc1-n1ccnc1 [1-[2-(Trifluoromethyl)phenyl]imidazole], the mean [19] was -0.5336, the Replicate_1 [20] was 0.8297 and the Replicate_2 [21] was -1.897.

Br.NC1CCc2cc(O)c(O)cc2C1 (stereo not shown) [6,7-ADTN hydrobromide] was tested, and the “mean (LOPAC screen with protease)” value [1] was 64.0916, the “Replicate_1 (LOPAC screen with protease)” value [2] was 63.1732 and the “Replicate_2 (LOPAC screen with protease)” value [3] was 65.0099.

c1ccc2c(CC3=NCCN3)cccc2c1 [Naphazoline hydrochloride] gave an inhibition at 5 µM [22] of 4.49%, an inhibition at 5 µM [23] of 4.4% and an inhibition at 5 µM [24] of 4.59%.

Cc1cc(C(C)(C)C)cc(C)c1CC1=NCCN1 [Xylometazoline hydrochloride] was tested, and the inhibition at 5 µM (sheet LOPAC_screen_w_protease, LOPAC1280 at 5 µM, mean of two replicates, read-out: mean) was 1.12%, the inhibition at 5 µM (sheet LOPAC_screen_w_protease, LOPAC1280 at 5 µM, replicate 1, read-out: Replicate_1) was 0.813% and the inhibition at 5 µM (sheet LOPAC_screen_w_protease, LOPAC1280 at 5 µM, replicate 2, read-out: Replicate_2) was 1.42%.

With CCOC(=O)c1ncn2c1[C@@H]1CCCN1C(=O)c1cc(OC)ccc1-2 [L-655,708] the mean (sheet LOPAC_screen_w_protease, LOPAC1280 at 5 µM, mean of two replicates) was 1.109, the Replicate_1 (sheet LOPAC_screen_w_protease, LOPAC1280 at 5 µM, replicate 1) was 1.0635 and the Replicate_2 (sheet LOPAC_screen_w_protease, LOPAC1280 at 5 µM, replicate 2) was 1.155.

Cc1ccc(S(=O)(=O)NC(=O)NN2CCCCCC2)cc1 [Tolazamide] showed an inhibition at 5 µM [7] of -0.908%, an inhibition at 5 µM [8] of -0.0393% and an inhibition at 5 µM [9] of -1.78%.
